Reference: article PMC10703812, “Understanding the molecular mechanisms of odorant binding and activation of the human OR52 family” (Nature Communications, 2023)
Several values for one entry are separate records, joined by “and”; a condition that tells them apart may be missing. Equal entries are not always repeated.

Legend:
[1] = test system: OR52cs R265A; assay: CRE luciferase assay in Hana3A cells, mutant; assay type: cell-based, human; details: 100 µM carboxylic acid; Fig.S7a, single experiments
Protocol: (§1) For cAMP assay, CRE luciferase assay, and surface ELISA, the full-length OR52cs construct was cloned into the pcDNA3.1 vector. The Lucy signal sequence and FLAG peptide sequence were added to the N-terminus. Mutant constructs were generated by site-directed mutagenesis. For BRET assay, eYFP was added at the C-terminus of OR52cs with a GGGGS linker. Rluc was added to Gα for resonance partner (after L99 for Gαs, and I100 for Gαolf, respectively, with GGGGS linker back and forth).
48 h after infection, cells were treated with odorants and incubated at 37 °C for 4 h. […] All values were divided by the Renilla luciferase activity to normalize the effect of cell confluence. All data were analyzed using GraphPad Prism 9.4.1.

[2] = test system: OR52cs V158F/V209M; assay: cAMP signaling assay, mutant; assay type: cell-based, human; details: for cAMP response: Fig.S8b source data, single experiments
Protocol: as §1
(§2) Hana3A cells were seeded on 96-well white microplates and transfected with OR52cs or the corresponding mutants and cAMP sensor (Promega). The medium was exchanged with CO2-independent medium (Gibco) supplemented with 0.375 mg ml^−1 D-luciferin (Nanolight) 48 h after infection, and cells were incubated in the dark at 20 °C for 2 h. Basal luminescence was detected using a Tristar 2 LB 942 multimode reader (Berthold) until it reached a plateau. Subsequently, various concentrations of odorants and forskolin (Sigma-Aldrich) were added to each well, and luminescence was measured again. Data were analyzed and plotted using GraphPad Prism 9.4.1.

[3] = test system: OR52cs V158F; assay: cAMP signaling assay, mutant; assay type: cell-based, human; details: for cAMP response: Fig.S8b source data, single experiments
Protocol: as §1, §2

[4] = test system: OR52cs; assay: cAMP signaling assay (cAMP sensor) in Hana3A cells; assay type: cell-based, human; details: single experiments
Protocol: as §1, with “forth). […]” for “forth).”
as §2

[5] = test system: OR52L1; design: method as in earlier work; details: cited from earlier work
[6] = test system: OR52cs; assay: CRE luciferase assay in Hana3A cells; assay type: cell-based, human; details: for relative fold of CRE luciferase activity: Fig.S7b, single experiments
Protocol: as §1
Hana3A cells were seeded on 96-well white microplates (SPL) and transfected with plasmids encoding CRE-luciferase, OR52cs or R265^6.59A mutant, Renilla luciferase, RTP1S, and Ric8b at a […] ratio 24 h after seeding. 48 h after infection, cells were treated with odorants and incubated at 37 °C for 4 h. Luminescence was measured using a Tristar 2 LB 942 multimode reader (Berthold). All values were divided by the Renilla luciferase activity to normalize the effect of cell confluence. All data were analyzed using GraphPad Prism 9.4.1.

[7] = odorant 9.18274e-6 M, Fig.1a source data
[8] = odorant 9.18274e-8 M, Fig.S8b source data
[9] = odorant 9.18274e-7 M, Fig.S8b source data
[10] = odorant 9.18274e-6 M, Fig.S8b source data
[11] = odorant 3.0303e-5 M, Fig.S8b source data
[12] = odorant 0.0001 M, Fig.S8b source data
[13] = odorant 0.001 M, Fig.S8b source data
[14] = odorant 3.0303e-5 M, Fig.1a source data
[15] = odorant 0.0001 M, Fig.1a source data

SMILES	relative fold (luciferase activity over DMSO) [1]	cAMP response ([2]; odorant 9.18274e-8 M)	cAMP response ([2]; odorant 9.18274e-7 M)	cAMP response ([2]; odorant 9.18274e-6 M)	cAMP response ([2]; odorant 3.0303e-5 M)	cAMP response ([2]; odorant 0.0001 M)	cAMP response ([2]; odorant 0.001 M)	cAMP response ([3]; odorant 9.18274e-8 M)	cAMP response ([3]; odorant 9.18274e-7 M)	cAMP response ([3]; odorant 9.18274e-6 M)	cAMP response ([3]; odorant 3.0303e-5 M)	cAMP response ([3]; odorant 0.0001 M)	cAMP response ([3]; odorant 0.001 M)	cAMP response [4, 7]	cAMP response [4, 8]	cAMP response [4, 9]	cAMP response [4, 10]	cAMP response [4, 11]	cAMP response [4, 12]	cAMP response [4, 13]	also measured
CCCCCC(=O)O [Hexanoate, hexanoate]	1.1154 fold and 1.251 fold and 1.361 fold and 1.012 fold	1.222% and -0.2583% and 0.8037%	3.048% and 0.3713% and 1.148%	18.0149% and 8.5338% and 10.0807%	41.8588% and 26.1015% and 26.6027%	60.5576% and 50.8798% and 56.2545%	83.4195% and 80.8044% and 89.7505%	0.5855% and -0.5118%	0.5361% and -0.697%	0.7501% and -0.4246%	1.164% and -0.1819%	1.41% and -0.4498%	3.85% and 2.176%	–	–	–	–	–	–	–	response / preference (in words) ([2]; Supplementary Fig. 8): increased responses
CCCCCCCCCCC(=O)O [Undecanoate, undecanoate]	1.911 fold and 1.478 fold and 1.422 fold and 1.276 fold	–	–	–	–	–	–	–	–	–	–	–	–	17.2544 and 14.2907 and 24.4976	–	–	–	–	–	–	–
CCC(=O)O [Propionate, propionate]	–	0.9618% and -0.01314% and -0.2398%	1.572% and -0.593% and -0.7182%	1.935% and -0.7307% and 0.6877%	2.83% and 0.05137% and 0.2753%	2.508% and 0.3655% and 0.1006%	6.973% and 2.2608% and 3.165%	0.2434% and 0.9095%	-0.2446% and -2.828%	0.996% and -2.758%	-1.498% and -2.916%	-0.9959% and -2.168%	2.021% and 1.439%	–	-0.2092% and 0.1117% and 0.5205%	-0.1831% and 0.1609% and 0.123%	-0.2867% and 0.1185% and 0.09817%	0.2368% and 0.05491% and -0.002619%	-0.3215% and 0.04237% and 0.3227%	0.5115% and 1.283% and 1.204%	–
CCCCCCCCCC(=O)O [Decanoate, decanoate]	1.3086 fold and 1.135 fold and 1.747 fold and 1.1432 fold	–	–	–	–	–	–	–	–	–	–	–	–	23.4129 and 25.1996 and 45.8933	–	–	–	–	–	–	–
CCCCC(=O)O [Pentanoate, pentanoate]	–	-0.5993% and 0.7689% and 1.106%	-0.2116% and 0.634% and 0.6548%	0.981% and 2.2804% and 2.576%	3.113% and 5.861% and 4.955%	9.203% and 15.4507% and 12.8173%	39.0499% and 48.7069% and 47.2503%	0.9264% and 0.2953% and 1.001%	0.9435% and 0.3179% and 1.755%	1.032% and 0.4577% and 1.961%	1.125% and 0.847% and 2.468%	1.499% and 1.023% and 3.422%	5.439% and 4.505% and 7.762%	–	-0.162% and 0.6359% and -0.04254%	0.07645% and 0.3953% and 0.2459%	0.2758% and 0.7357% and 0.01532%	0.2715% and 0.6901% and 0.4212%	0.1615% and 1.39% and 0.4292%	2.769% and 2.642% and 1.705%	response of OR52L1 (in words) [5]: responsive
CCCC(=O)O [Butyrate]	–	0.4134% and 1.119% and 0.2589%	0.6599% and 0.9287% and 0.2324%	1.238% and 1.86% and 0.7353%	1.067% and 2.455% and 1.672%	1.838% and 4.182% and 3.8607%	12.4605% and 15.8218% and 16.2328%	0.537% and 0.1319% and 1.733%	0.488% and 0.3268% and 1.1839%	0.5541% and 0.2838% and 1.329%	0.4886% and 0.5179% and 1.414%	0.8581% and 0.2707% and 1.963%	2.495% and 1.981% and 6.452%	–	-0.08428% and 0.1653% and 0.2939%	-0.5369% and 0.4001% and -0.04745%	0.134% and 0.6883% and 0.4284%	0.1103% and 0.05302% and 0.2786%	-0.1073% and 0.8927% and 0.1591%	1.5929% and 1.31% and 1.1069%	–
CCCCCCCCC(=O)O [Nonanoate, nonanoate]	1.195 fold and 0.996 fold and 1.289 fold and 1.267 fold	–	–	–	–	–	–	–	–	–	–	–	–	36.8538 and 30.3132 and 25.7666	–	–	–	–	–	–	cAMP response [4, 14]: 65.8721 and 78.3812 and 58.155; cAMP response [4, 15]: 84.5947 and 88.3315 and 72.5955
CCCCCCC(=O)O [Heptanoate, heptanoate]	1.17 fold and 1.091 fold and 1.293 fold and 0.9952 fold	0.3154% and 0.3231% and 0.3938%	4.347% and 1.257% and 3.311%	29.4811% and 22.451% and 26.2109%	75.795% and 74.3485% and 82.8548%	83.9682% and 91.5635% and 102.817%	81.746% and 93.3745% and 90.7212%	0.8685% and 0.5114% and 0.9157%	1.104% and 0.7302% and 1.422%	3.442% and 2.688% and 4.371%	27.9975% and 25.6918% and 43.6578%	66.0899% and 63.5108% and 78.243%	94.8324% and 85.8407% and 105.113%	–	–	–	–	–	–	–	cAMP response [4, 14]: 56.3478 and 75.8757 and 80.5266; cAMP response [4, 15]: 81.4095 and 85.4775 and 102.977; cAMP response ([4]; odorant 0.001 M, Fig.1a source data): 96.609 and 80.1017 and 111.088; downstream signal / selectivity (in words) ([3]; Supplementary Fig. 8): enhanced selectivity
CCCCCCCCO [Octanol, octanol]	–	–	–	–	–	–	–	–	–	–	–	–	–	–	–	–	–	–	–	–	activation of OR52cs (in words) ([6]; Supplementary Fig. 7): failed to activate; relative fold of CRE luciferase activity ([6]; odorant 10 μM): 1.663 fold and 1.557 fold and 1.263 fold and 1.4999 fold; relative fold of CRE luciferase activity ([6]; odorant 50 μM): 1.747 fold and 1.809 fold and 1.706 fold and 1.694 fold; relative fold of CRE luciferase activity ([6]; odorant 100 μM): 1.917 fold and 1.93 fold and 1.901 fold and 2.061 fold; relative fold of CRE luciferase activity ([6]; odorant 250 μM): 1.931 fold and 2.053 fold and 2.136 fold and 2.342 fold; relative fold of CRE luciferase activity ([6]; odorant 500 μM): 1.887 fold and 2.082 fold and 2.24 fold and 2.823 fold
